Experimental data published in patent publication US20240270762A1, “PENICILLIN-BINDING PROTEIN INHIBITORS” (priority 2021, published 2024).
Converted amounts (≈) assume the structure as drawn.

What was measured:
P. aeruginosa ATCC 35151 = experiment: microbe, parasite or virus in culture; type: cell-based; conditions: Pseudomonas aeruginosa, ATCC35151, read-out: Minimum inhibitory concentration, P. aeruginosa ATCC 35151
A. baumannii CDC-0083 = experiment: microbe, parasite or virus in culture; type: cell-based; conditions: Acinetobacter baumannii, CDC0083, read-out: MIC, A. baumannii CDC-0083
[1] = molecular target: T1, PBP3 from Pseudomonas aeruginosa (PAO1) (Pseudomonas aeruginosa, UniProt G3XD46); experiment: Bocillin-FL fluorescence polarization competition binding, P. aeruginosa PBP3; conditions: Binding affinity to P. aeruginosa PBP3; fluorescence polarization competition binding assay using Bocillin-FL; read-out: P. aeruginosa PBP3 Potency
T1 construct: made in house
Method in brief: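 Purified PBPs pre-incubated with inhibitor (E. coli PBP3 1.5 μM, 30 min; P. aeruginosa PBP3 0.75 μM, A. baumannii PBP1a 1 μM and PBP3 0.2 μM, 15 min), then Bocillin-FL 0.1 μM (0.05 μM for PBP1a) added; FP read up to 60 min. EC50 = concentration halving bound Bocillin-FL.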

[2] = test system: B. humptydooensis ATCC BAA-2767; experiment: microbe, parasite or virus in culture; type: cell-based; conditions: Burkholderia humptydooensis, ATCCBAA2767, read-out: Minimum inhibitory concentration (MIC), B. humptydooensis ATCC BAA-2767
A. baumannii CDC-0045 = experiment: microbe, parasite or virus in culture; type: cell-based; conditions: Acinetobacter baumannii, CDC0045, read-out: MIC, A. baumannii CDC-0045
P. aeruginosa CDC-0095 = experiment: microbe, parasite or virus in culture; type: cell-based; conditions: Pseudomonas aeruginosa, CDC0095, read-out: Minimum inhibitory concentration, P. aeruginosa CDC-0095
A. baumannii ATCC 17978 = experiment: microbe, parasite or virus in culture; type: cell-based; conditions: Acinetobacter baumannii, ATCC17978, read-out: MIC, A. baumannii ATCC 17978
A. baumannii ATCC 19606 = experiment: microbe, parasite or virus in culture; type: cell-based; conditions: Acinetobacter baumannii, ATCC19606, read-out: MIC, A. baumannii ATCC 19606
A. baumannii CDC-0036 = experiment: microbe, parasite or virus in culture; type: cell-based; conditions: Acinetobacter baumannii, CDC0036, read-out: MIC, A. baumannii CDC-0036
A. baumannii 1258916 = experiment: microbe, parasite or virus in culture; type: cell-based, Acinetobacter baumannii; conditions: Acinetobacter baumannii, 1258916, read-out: MIC, A. baumannii 1258916
[3] = test system: B. thailandensis ATCC 700388; experiment: microbe, parasite or virus in culture; type: cell-based; conditions: Burkholderia thailandensis, ATCC700388, read-out: Minimum inhibitory concentration (MIC), B. thailandensis ATCC 700388
A. baumannii CDC-0033 = experiment: microbe, parasite or virus in culture; type: cell-based; conditions: Acinetobacter baumannii, CDC0033, read-out: MIC, A. baumannii CDC-0033

T1 sequence (G3XD46 whole entry): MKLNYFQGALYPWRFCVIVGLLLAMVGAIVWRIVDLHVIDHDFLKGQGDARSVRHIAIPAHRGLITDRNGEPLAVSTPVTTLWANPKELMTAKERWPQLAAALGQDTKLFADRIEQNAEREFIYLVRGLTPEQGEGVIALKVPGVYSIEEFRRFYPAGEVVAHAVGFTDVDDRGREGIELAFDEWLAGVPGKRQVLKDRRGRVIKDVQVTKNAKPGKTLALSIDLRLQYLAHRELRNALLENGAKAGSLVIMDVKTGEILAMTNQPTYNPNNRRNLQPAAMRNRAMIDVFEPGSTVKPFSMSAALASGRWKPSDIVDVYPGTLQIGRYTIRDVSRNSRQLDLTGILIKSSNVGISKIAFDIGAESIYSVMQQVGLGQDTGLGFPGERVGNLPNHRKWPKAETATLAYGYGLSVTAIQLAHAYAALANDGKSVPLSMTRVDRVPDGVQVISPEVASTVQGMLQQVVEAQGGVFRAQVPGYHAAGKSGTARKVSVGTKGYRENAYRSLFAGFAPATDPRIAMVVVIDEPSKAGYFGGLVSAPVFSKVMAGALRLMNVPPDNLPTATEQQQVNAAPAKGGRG

Row | Compound | MIC (P. aeruginosa ATCC 35151) [µg/mL] | MIC (A. baumannii CDC-0083) [µg/mL] | IC50 [1] [µM] | MIC [2] [µg/mL] | MIC (A. baumannii CDC-0045) [µg/mL] | MIC (P. aeruginosa CDC-0095) [µg/mL] | MIC (A. baumannii ATCC 17978) [µg/mL] | MIC (A. baumannii ATCC 19606) [µg/mL] | MIC (A. baumannii CDC-0036) [µg/mL] | MIC (A. baumannii 1258916) [µg/mL] | MIC [3] [µg/mL] | MIC (A. baumannii CDC-0033) [µg/mL]
1 | O=C(NCCCN1CCN(C(=O)N[C@@H](C(=O)N[C@H]2Cc3ccc(F)c(C(=O)O)c3OB2O)c2cc(F)c(O)c(O)c2Cl)C(=O)C1=O)c1ccncc1 [Example 294, (R)-3-((R)-2-(2-chloro-5-fluoro-3,4-dihydroxyphenyl)-2-(4-(3-(isonicotinamido)propyl)-2,3-dioxopiperazine-1-carboxamido)acetamido)-7-fluoro-2-hydroxy-3,4-dihydro-2H-benzo[e][1,2]oxaborinine-8-carboxylic acid] | < 1 | < 1 | < 10 | < 1 | < 1 | < 1 | < 1 | < 1 | < 1 | < 1 | < 1 | 2 to 4 (≈ 2.69 to 5.37 µM)
2 | O=C(NCCCN1CCN(C(=O)N[C@@H](C(=O)N[C@H]2Cc3ccc(F)c(C(=O)O)c3OB2O)c2cc(F)c(O)c(O)c2Cl)C(=O)C1=O)c1ccnc(F)c1F [Example 300, (R)-3-((R)-2-(2-chloro-5-fluoro-3,4-dihydroxyphenyl)-2-(4-(3-(2,3-difluoroisonicotinamido)propyl)-2,3-dioxopiperazine-1-carboxamido)acetamido)-7-fluoro-2-hydroxy-3,4-dihydro-2H-benzo[e][1,2]oxaborinine-8-carboxylic acid] | < 1 | < 1 | < 10 | < 1 | < 1 | 2 to 4 (≈ 2.56 to 5.12 µM) | < 1 | < 1 | 2 to 4 (≈ 2.56 to 5.12 µM) | < 1 | 2 to 4 (≈ 2.56 to 5.12 µM) | 2 to 4 (≈ 2.56 to 5.12 µM)
3 | O=C(NCCS(=O)(=O)N1CCN(C(=O)NC(C(=O)N[C@H]2Cc3ccc(F)c(C(=O)O)c3OB2O)c2cc(F)c(O)c(O)c2Cl)C1=O)c1ccncc1 (stereo partly drawn) [Example 288, (3R)-3-(2-(2-chloro-5-fluoro-3,4-dihydroxyphenyl)-2-(3-((2-(isonicotinamido)ethyl)sulfonyl)-2-oxoimidazolidine-1-carboxamido)acetamido)-7-fluoro-2-hydroxy-3,4-dihydro-2H-benzo[e][1,2]oxaborinine-8-carboxylic acid] | < 1 | < 1 | < 10 | 2 to 4 (≈ 2.61 to 5.22 µM) | < 1 | 8 to 16 (≈ 10.4 to 20.9 µM) | < 1 | < 1 | 2 to 4 (≈ 2.61 to 5.22 µM) | < 1 | 2 to 4 (≈ 2.61 to 5.22 µM) | 8 to 16 (≈ 10.4 to 20.9 µM)
4 | O=C(NCCCN1CCN(C(=O)N[C@H](C(=O)N[C@H]2Cc3ccc(F)c(C(=O)O)c3OB2O)c2cc(F)c(O)c(O)c2Cl)C1=O)Nc1ccc(O)cc1 [Example 283, (R)-3-((S)-2-(2-chloro-5-fluoro-3,4-dihydroxyphenyl)-2-(3-(3-(3-(4-hydroxyphenyl)ureido)propyl)-2-oxoimidazolidine-1-carboxamido)acetamido)-7-fluoro-2-hydroxy-3,4-dihydro-2H-benzo[e][1,2]oxaborinine-8-carboxylic acid] | 2 to 4 (≈ 2.68 to 5.36 µM) | > 128 | 50 to 250 | > 128 | > 128 | > 128 | > 128 | > 128 | > 128 | > 128 | > 128 | > 128
